In ChEMBL document CHEMBL1201862, “PubChem BioAssay data set” (2004):
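Each compound was tested at five concentrations against cells in 96-well plates for 48 hours. The concentration for 50% growth inhibition is given as GI50.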 Active and inactive are the calls of the source. No stated cut-off is given here; in the data, active = GI50 up to about 1.1 µM and inactive = higher.

Experiments:
Experiment in all cases: growth of human tumour cells (NCI), 48 h
M14 = test system: M14
MCF7 = test system: MCF7
SNB-19 = test system: SNB-19
RPMI-8226 = test system: RPMI-8226
SF-295 = test system: SF-295
EKVX = test system: EKVX
PC-3 = test system: PC-3
OVCAR-3 = test system: OVCAR-3
MDA-MB-231 = test system: MDA-MB-231
SK-OV-3 = test system: SK-OV-3
SF-268 = test system: SF-268
OVCAR-8 = test system: OVCAR-8
RXF 393 = test system: RXF 393
UO-31 = test system: UO-31
HOP-62 = test system: HOP-62
SK-MEL-5 = test system: SK-MEL-5
HOP-92 = test system: HOP-92
786-0 = test system: 786-0
HCC 2998 = test system: HCC 2998
BT-549 = test system: BT-549
MOLT-4 = test system: MOLT-4
NCI-H522 = test system: NCI-H522
NCI-H460 = test system: NCI-H460
K562 = test system: K562
COLO 205 = test system: COLO 205
A498 = test system: A498
DU-145 = test system: DU-145
NCI/ADR-RES = test system: NCI/ADR-RES
SW-620 = test system: SW-620
TK-10 = test system: TK-10
UACC-257 = test system: UACC-257
NCI-H23 = test system: NCI-H23
CCRF-CEM = test system: CCRF-CEM
A549 = test system: A549
U-251 = test system: U-251
IGROV-1 = test system: IGROV-1
MDA-N = test system: MDA-N
SF-539 = test system: SF-539
CAKI-1 = test system: CAKI-1
ACHN = test system: ACHN
MDA-MB-435 = test system: MDA-MB-435
Malme-3M = test system: Malme-3M
SNB-75 = test system: SNB-75
SR = test system: SR
HT-29 = test system: HT-29
HL-60 = test system: HL-60
OVCAR-4 = test system: OVCAR-4
HCT-116 = test system: HCT-116
UACC-62 = test system: UACC-62
NCI-H226 = test system: NCI-H226
HCT-15 = test system: HCT-15
Hs-578T = test system: Hs-578T
SK-MEL-28 = test system: SK-MEL-28
LOX IMVI = test system: LOX IMVI
KM12 = test system: KM12
OVCAR-5 = test system: OVCAR-5
SK-MEL-2 = test system: SK-MEL-2
SN12C = test system: SN12C
T47D = test system: T47D

SMILES: CCOC(=O)NC(OC)(C(F)(F)F)C(F)(F)F
- GI50 (M14): > 100 µM (inactive)
- GI50 (MCF7): > 100 µM (inactive)
- GI50 (SNB-19): > 100 µM (inactive)
- GI50 (RPMI-8226): > 100 µM (inactive)
- GI50 (SF-295): > 100 µM (inactive)
- GI50 (EKVX): > 100 µM (inactive)
- GI50 (PC-3): > 100 µM (inactive)
- GI50 (OVCAR-3): > 100 µM (inactive)
- GI50 (MDA-MB-231): > 100 µM (inactive)
- GI50 (SK-OV-3): 46.9 µM (inactive)
- GI50 (SF-268): > 100 µM (inactive)
- GI50 (OVCAR-8): > 100 µM (inactive)
- GI50 (RXF 393): > 100 µM (inactive)
- GI50 (UO-31): > 100 µM (inactive)
- GI50 (HOP-62): > 100 µM (inactive)
- GI50 (SK-MEL-5): > 100 µM (inactive)
- GI50 (HOP-92): > 100 µM (inactive)
- GI50 (786-0): > 100 µM (inactive)
- GI50 (HCC 2998): > 100 µM (inactive)
- GI50 (BT-549): > 100 µM (inactive)
- GI50 (MOLT-4): > 100 µM (inactive)
- GI50 (NCI-H522): > 100 µM (inactive)
- GI50 (NCI-H460): > 100 µM (inactive)
- GI50 (K562): > 100 µM (inactive)
- GI50 (COLO 205): > 100 µM (inactive)
- GI50 (A498): > 100 µM (inactive)
- GI50 (DU-145): > 100 µM (inactive)
- GI50 (NCI/ADR-RES): > 100 µM (inactive)
- GI50 (SW-620): > 100 µM (inactive)
- GI50 (TK-10): > 100 µM (inactive)
- GI50 (UACC-257): > 100 µM (inactive)
- GI50 (NCI-H23): > 100 µM (inactive)
- GI50 (CCRF-CEM): > 100 µM (inactive)
- GI50 (A549): > 100 µM (inactive)
- GI50 (U-251): > 100 µM (inactive)
- GI50 (IGROV-1): > 100 µM (inactive)
- GI50 (MDA-N): > 100 µM (inactive)
- GI50 (SF-539): > 100 µM (inactive)
- GI50 (CAKI-1): > 100 µM (inactive)
- GI50 (ACHN): > 100 µM (inactive)
- GI50 (MDA-MB-435): > 100 µM (inactive)
- GI50 (Malme-3M): > 100 µM (inactive)
- GI50 (SNB-75): > 100 µM (inactive)
- GI50 (SR): > 100 µM (inactive)
- GI50 (HT-29): > 100 µM (inactive)
- GI50 (HL-60): > 100 µM (inactive)
- GI50 (OVCAR-4): > 100 µM (inactive)
- GI50 (HCT-116): > 100 µM (inactive)
- GI50 (UACC-62): > 100 µM (inactive)
- GI50 (NCI-H226): > 100 µM (inactive)
- GI50 (HCT-15): > 100 µM
- GI50 (Hs-578T): > 100 µM (inactive)
- GI50 (SK-MEL-28): > 100 µM (inactive)
- GI50 (LOX IMVI): > 100 µM (inactive)

SMILES: [N-]=[N+]=CC(=O)OCC1SCCCS1
- GI50 (KM12): > 100 µM (inactive)
- GI50 (MCF7): > 100 µM (inactive)
- GI50 (SNB-19): > 100 µM (inactive)
- GI50 (RPMI-8226): > 100 µM (inactive)
- GI50 (OVCAR-5): > 100 µM (inactive)
- GI50 (SF-295): > 100 µM (inactive)
- GI50 (EKVX): > 100 µM (inactive)
- GI50 (PC-3): > 100 µM (inactive)
- GI50 (OVCAR-3): > 100 µM (inactive)
- GI50 (MDA-MB-231): > 100 µM (inactive)
- GI50 (SK-OV-3): > 100 µM (inactive)
- GI50 (SF-268): > 100 µM (inactive)
- GI50 (RXF 393): > 100 µM (inactive)
- GI50 (UO-31): > 100 µM (inactive)
- GI50 (HOP-62): 89.7 µM (inactive)
- GI50 (SK-MEL-5): > 100 µM (inactive)
- GI50 (HOP-92): > 100 µM (inactive)
- GI50 (786-0): > 100 µM (inactive)
- GI50 (HCC 2998): > 100 µM (inactive)
- GI50 (BT-549): > 100 µM (inactive)
- GI50 (MOLT-4): > 100 µM (inactive)
- GI50 (NCI-H522): > 100 µM (inactive)
- GI50 (NCI-H460): 74.6 µM (inactive)
- GI50 (K562): > 100 µM (inactive)
- GI50 (COLO 205): > 100 µM (inactive)
- GI50 (A498): > 100 µM (inactive)
- GI50 (DU-145): > 100 µM (inactive)
- GI50 (SW-620): > 100 µM (inactive)
- GI50 (SK-MEL-2): > 100 µM (inactive)
- GI50 (TK-10): > 100 µM (inactive)
- GI50 (UACC-257): > 100 µM (inactive)
- GI50 (NCI-H23): > 100 µM (inactive)
- GI50 (CCRF-CEM): > 100 µM (inactive)
- GI50 (U-251): > 100 µM (inactive)
- GI50 (IGROV-1): > 100 µM (inactive)
- GI50 (MDA-N): > 100 µM (inactive)
- GI50 (CAKI-1): 50.4 µM (inactive)
- GI50 (ACHN): 78.9 µM (inactive)
- GI50 (MDA-MB-435): > 100 µM (inactive)
- GI50 (Malme-3M): > 100 µM (inactive)
- GI50 (SR): > 100 µM (inactive)
- GI50 (HT-29): > 100 µM (inactive)
- GI50 (HL-60): > 100 µM (inactive)
- GI50 (OVCAR-4): > 100 µM (inactive)
- GI50 (HCT-116): > 100 µM (inactive)
- GI50 (UACC-62): > 100 µM (inactive)
- GI50 (SN12C): > 100 µM (inactive)
- GI50 (NCI-H226): > 100 µM (inactive)
- GI50 (HCT-15): > 100 µM
- GI50 (SK-MEL-28): > 100 µM (inactive)
- GI50 (LOX IMVI): > 100 µM (inactive)

SMILES: OC(c1ccc(C(F)(F)F)cc1)C(F)(F)c1nc2ccccc2o1 (stereo unspecified)
- GI50 (M14): > 100 µM (inactive)
- GI50 (KM12): > 100 µM (inactive)
- GI50 (MCF7): > 100 µM (inactive)
- GI50 (SNB-19): > 100 µM (inactive)
- GI50 (RPMI-8226): > 100 µM (inactive)
- GI50 (T47D): > 100 µM (inactive)
- GI50 (SF-295): > 100 µM (inactive)
- GI50 (EKVX): > 100 µM (inactive)
- GI50 (PC-3): > 100 µM (inactive)
- GI50 (MDA-MB-231): > 100 µM (inactive)
- GI50 (SK-OV-3): > 100 µM (inactive)
- GI50 (SF-268): > 100 µM (inactive)
- GI50 (OVCAR-8): > 100 µM (inactive)
- GI50 (RXF 393): > 100 µM (inactive)
- GI50 (UO-31): > 100 µM (inactive)
- GI50 (HOP-62): > 100 µM (inactive)
- GI50 (SK-MEL-5): > 100 µM (inactive)
- GI50 (HOP-92): > 100 µM (inactive)
- GI50 (786-0): > 100 µM (inactive)
- GI50 (HCC 2998): > 100 µM (inactive)
- GI50 (BT-549): > 100 µM (inactive)
- GI50 (MOLT-4): > 100 µM (inactive)
- GI50 (NCI-H460): > 100 µM (inactive)
- GI50 (K562): 56.8 µM (inactive)
- GI50 (COLO 205): > 100 µM (inactive)
- GI50 (DU-145): > 100 µM (inactive)
- GI50 (NCI/ADR-RES): > 100 µM (inactive)
- GI50 (SW-620): > 100 µM (inactive)
- GI50 (SK-MEL-2): > 100 µM (inactive)
- GI50 (TK-10): > 100 µM (inactive)
- GI50 (UACC-257): > 100 µM (inactive)
- GI50 (NCI-H23): > 100 µM (inactive)
- GI50 (CCRF-CEM): > 100 µM (inactive)
- GI50 (U-251): > 100 µM (inactive)
- GI50 (IGROV-1): > 100 µM (inactive)
- GI50 (SF-539): > 100 µM (inactive)
- GI50 (CAKI-1): > 100 µM (inactive)
- GI50 (ACHN): > 100 µM (inactive)
- GI50 (MDA-MB-435): > 100 µM (inactive)
- GI50 (SNB-75): > 100 µM (inactive)
- GI50 (SR): > 100 µM (inactive)
- GI50 (HT-29): > 100 µM (inactive)
- GI50 (HL-60): > 100 µM (inactive)
- GI50 (OVCAR-4): > 100 µM (inactive)
- GI50 (HCT-116): > 100 µM (inactive)
- GI50 (UACC-62): > 100 µM (inactive)
- GI50 (NCI-H226): > 100 µM (inactive)
- GI50 (HCT-15): > 100 µM
- GI50 (Hs-578T): > 100 µM (inactive)
- GI50 (SK-MEL-28): > 100 µM (inactive)
- GI50 (LOX IMVI): > 100 µM (inactive)
